How the values were obtained:
[1] = system: D. vulgaris (ATCC 7757) SRB biofilm; experiment: Prevention of SRB biofilm establishment on carbon steel coupons (Example 1): sessile cell count and SEM; type: cell-based, Desulfovibrio vulgaris; details: alone; for Sessile SRB cells on coupon surface (SEM), biofilm prevention: 7-day coupons
Description: D. vulgaris (ATCC 7757), a laboratory SRB strain, was cultured in ATCC 1249 medium. Quarter strength medium with only four key ingredients, i.e., MgSO4, sodium lactate, Fe(NH4)2(SO4)2 and yeast extract at concentrations ¼ of those in the full ATCC 1249 medium was also used to simulate a less nutritious environment. […] SRB culture media were sterilized in an autoclave and then deoxygenated using N2 (filter sterilized) sparging. SRB cells were enumerated using an SRB test kit (Sani-Check® Product #100, Biosan Laboratories, Warren, Mich., USA). […] Below this cell count, it is hard to catch an individual cell under the light microscope. The Most Probable Number (MPN) enumeration method is a standard method to estimate very low cell counts. MPN succeeds by growing the cells first and correlating the cell counts with the appearance of black color (due to FeS produced by SRB). […] The SRB test kit used in this example is equivalent to an MPN method using a solid medium instead of a liquid medium.
Anaerobic vials used in this example were 125 ml (Catalog No. 223748, Wheaton Industries Inc., 143 Millville, N.J., USA), each filled with 100 ml of culture medium. A glovebox filled with filter-sterilized N2 provided an anaerobic environment. To mitigate any possible oxygen leaks, 100 ppm L-cysteine (Fisher Scientific, Pittsburgh, Pa., USA), an oxygen scavenger, was added to the culture media. Thin disk shaped C1018 carbon steel coupons with a top disk surface area of 1.12 cm^2 were polished with 200, 400, and 600 grit abrasive papers progressively. Only the top surface of each coupon was exposed to the culture medium. The rest of the surfaces were coated with inert Teflon. After polishing, the coupons were weighed. The coupons were cleaned using isopropanol and then dried under UV light for 15 minutes.
Three duplicate coupons and 1 ml of a 3-day old SRB seed culture were added to each anaerobic vial. The initial SRB cell concentration in each vial immediately after inoculation was approximately 10^6 cells/ml. After adding treatment chemical(s) following inoculation, the vials were sealed and then incubated at 37° C. After 7 days of incubation, the biofilm on a coupon surface was observed under SEM. The procedure to prepare a coupon for SEM observation of a biofilm was described by Wen et al., Inter. […] Au coating of the biofilm covered coupon was necessary for SEM because the biofilm was not conductive. An SEM image was taken for the spot with most sessile cells after screening three duplicate coupons. A special control coupon was inserted in a vial containing the culture medium without biocide treatment and incubated without inoculation. This abiotic control would indicate yellow rust if an oxygen leak occurred. Its surface was also scanned for sessile cells under SEM for possible microbial contamination. Care was also taken to identify sessile cells that looked different from D. vulgaris during biofilm observation under SEM, which would indicate microbial contamination.
To obtain the average sessile cell density on a coupon surface, the sessile cells were first scraped off from the surface of a duplicate coupon onto a brush-like dipstick of the SRB test kit handled with sterile tweezers. The dipstick was wetted with deoxygenated water before scraping. Most of the sessile cells were collected by the dipstick. […]

[2] = system: mature D. vulgaris (ATCC 7757) SRB biofilm; experiment: Removal of established SRB biofilm, 1-h and 3-h simulated slug treatment (Example 2); type: cell-based, Desulfovibrio vulgaris; details: alone
Description: The full-strength ATCC 1249 medium was used to grow SRB biofilms on coupon surfaces first. […] In the anaerobic chamber, the coupons were taken out and rinsed with phosphate buffered saline (PBS) buffer to remove loose planktonic cells. The coupons were then placed into petri dishes containing treatment chemicals in a water solution. Some coupons were treated for 1 h and some for 3 h. This simulated slug treatment with a contact time lasting 1 and 3 h, respectively, as in the situation when a biocide slug flows inside a pipeline. Flow effect was not considered here. Exposing SRB cells on a coupon from the ATCC 1249 medium to a water solution lacking salt ions might cause osmotic shock that could interfere with the biocide efficacy evaluation. Instead of using PBS buffer commonly used in cell cultures, two salts in the original medium, MgSO4 and (NH4)2Fe(SO4)2, were added to the 1 and 3-h treatment solutions at ¼ of their corresponding concentrations in the full-strength ATCC 1249 medium. The treated coupons were then removed and examined for sessile SRB cells. The diluted medium was used here to simulate the residual nutrients retained by the local biofilms when the bulk pipeline or tank fluid is displaced by the biocide solution during a field treatment.
(§1) The procedure to prepare a coupon for SEM observation of a biofilm on a coupon surface was described by Wen et al., Inter. Biodeter. Biodegr., (2009), 63:1102-1106. […] Thus, an SEM image was taken after searching for a spot with the most sessile cells. The cells seen in the SEM images should not be used to count the sessile cells because of uneven distribution. Instead, the Most Probable Number (MPN) method was used to enumerate sessile cells. SEM images could be used as qualitative visual confirmation of biofilm removal.
(§2) Viable D. vulgaris cells can be seen as motile cells under a light microscope at 400×. Thus they can be counted using a hemocytometer. However, this method has a detection limit of 5×10^4 cells/ml minimum at 400× magnification. It is a standard practice to enumerate very low cell counts using the semi-quantitative most probable number (MPN) method with a liquid culture medium or a solid medium. The accuracy of MPN is typically 1 log in cell numbers. Thus, it takes at least a 2-log reduction to assure the efficacy of a biocide system. In this example, the sessile cells on a coupon were scraped and collected in a test tube by using the brush-like dipstick that was part of an SRB test kit (Sani-Check® Product #100 from Biosan Laboratories, Warren, Mich., USA). The dipstick was then soaked in 10 ml sterilized distilled water and vortexed for 30 s. Finally, the dipstick was inserted into the test kit's vial containing a solid SRB culture medium. The SRB sessile cell concentration was based on how long it took for the black color (FeS) to appear in the medium around the dipstick. The tests were repeated three separate times. Each time, two coupons were used for sessile SRB cell counting.

[3] = system: D. vulgaris (ATCC 7757) SRB biofilm; experiment: Mitigation of MIC pitting and weight loss of C1018 carbon steel coupons (Example 1); parameters: species or system Desulfovibrio vulgaris; details: 50 ppm, alone; 7 days
From the text: The coupons for SEM used in above in “Prevention of Biofilm Establishment” were reused to observe the MIC pitting after their biofilms and Au coating were removed using the Clark's solution. Coupon weight loss data were obtained from another duplicate coupon in each vial. The coupon surface was cleaned to remove biofilms and mineral deposits using the Clark's solution before weighing.

[4] = system: D. vulgaris (ATCC 7757) SRB biofilm; experiment: Prevention of SRB biofilm establishment (Example 2): sessile cell count (MPN) and SEM; type: cell-based, Desulfovibrio vulgaris; details: 100 ppm, alone, 7 days; for Sessile SRB cells on coupon (SEM), biofilm prevention: full-strength medium
Description: D. vulgaris (ATCC 7757), a common SRB strain, was used in this example. Before inoculation, the culture media were autoclave sterilized and then sparged with filter-sterilized nitrogen for at least 45 minutes to remove dissolved oxygen. SRB growth was carried out in 125 ml anaerobic vials (Catalog No. 223748, Wheaton Industries Inc., Millville, N.J., USA) filled with 100 ml culture medium. In the test, 1 ml SRB seed culture was used to inoculate each anaerobic vial to achieve an SRB concentration of 10^6 cells/ml right after inoculation. The full-strength ATCC 1249 medium with 200 ppm Fe^2+ was used to grow SRB biofilm on coupon surfaces.
It was neutralized to pH 7.0 by adding a sodium hydroxide solution. Coin shaped C1018 carbon steel coupons with a top exposed surface area of 1.12 cm^2 were used as substratum for SRB growth. The side and bottom surfaces were coated with inert Teflon. The top surface was polished sequentially by 200, 400, and 600 grit abrasive papers. Nitrogen sparging was used to remove dissolved oxygen in all liquids and to provide an anaerobic environment in a glove box. 100 ppm L-cysteine (Fisher Scientific, Pittsburgh, Pa., USA) was added to the culture media as an oxygen scavenger to mitigate any possible oxygen leak.
One milliliter of SRB seed culture was added at the beginning of the tests and the vials were sealed and incubated at 37° C. without shaking. After 7 days, the coupons were taken out and examined for sessile SRB cells.
as §1, §2

## N[C@H](Cc1c[nH]c2ccccc12)C(=O)O [D-tryptophan]
[1]; 100 ppm
  Sessile SRB cells on coupon surface (SEM), biofilm prevention: ineffective

## Tetrakis hydroxymethyl phosphonium sulfate [THPS]
[2]; 50 ppm, 1 h
  Reduction of sessile SRB concentration versus control: 2 log
  Sessile SRB cells on coupon (SEM), 1-h shock treatment: numerous sessile SRB cells remained
  Sessile cell count for 1-h treatment: ≧10^4 cells/cm^2
[2]; 50 ppm
  Sessile cell count for 3-h treatment: ≧10^3 cells/cm^2
[3]
  Normalized coupon weight loss (average): 0.65 mg/cm^2
[4]
  Kill of SRB sessile cells: 99.999%
  Reduction of SRB sessile cells versus untreated control: 5 log
  Sessile SRB cells on coupon (SEM), biofilm prevention: partially effective
[1]; 100 ppm
  Sessile SRB cells on coupon surface (SEM), biofilm prevention: had sessile SRB cells on their surfaces

## CC(C)C[C@@H](N)C(=O)O [D-leucine]
[1]; 500 ppm, after 7 days, ATCC 1249 medium
  Sessile cell count: ≧10^5 cells/cm^2

## CSCC[C@@H](N)C(=O)O [D-methionine]
[1]; 500 ppm
  Sessile SRB cells on coupon surface (SEM), biofilm prevention: had sessile SRB cells on their surfaces

## N[C@H](Cc1ccc(O)cc1)C(=O)O [D-tyrosine]
[2]; 100 ppm, 1 h
  Sessile SRB cells on coupon (SEM), 1-h shock treatment: left many sessile cells on the coupon surface
[2]; 100 ppm
  Sessile cell count for 3-h treatment: ≧10^5 cells/cm^2
[4]
  Reduction of SRB sessile cells versus untreated control: 1 log
  Sessile SRB cells on coupon (SEM), biofilm prevention: completely ineffective
[1]; 10 ppm
  Sessile SRB cells on coupon surface (SEM), biofilm prevention: not effective in preventing SRB biofilm formation
